In US20260193294A1, “POLYPEPTIDE INHIBITOR, AND PREPARATION METHOD THEREFOR AND USE THEREOF” (SHANGHAI HANSOH BIOMEDICAL CO., LTD., priority 2022, published 2026):
Positions of bridges follow the written chain, without caps; N, C: chain ends. Non-standard residues stand in square brackets, D forms with d. Residues, ends and D or L forms follow the SMILES beside them. Trp(7-Me) = Cc1cccc2c(C[C@H](N)C(=O)O)c[nH]c12; 2Nal = N[C@@H](Cc1ccc2ccccc2c1)C(=O)O; Thp(SO2) = NC1(C(=O)O)CCS(=O)(=O)CC1; AEF = NCCOc1ccc(C[C@H](N)C(=O)O)cc1; Ac6c(4-thia) = NC1(C(=O)O)CCSCC1; 3Pal = N[C@@H](Cc1cccnc1)C(=O)O; Pen = CC(C)(S)[C@H](N)C(=O)O; Sar = CNCC(=O)O

Tests used:
[1] = molecular target: T1, IL23R (Homo sapiens, UniProt Q5VWK5); assay: Competing with IL23 for binding to IL23R (HTRF, IL23/IL23R binding assay kit); details: 2 hours incubation at room temperature
T1 construct: Tag2 (identity not disclosed); purchased PerkinElmer 64BDPIL23PEH
T1 sequence (Q5VWK5 24-355 limits assumed): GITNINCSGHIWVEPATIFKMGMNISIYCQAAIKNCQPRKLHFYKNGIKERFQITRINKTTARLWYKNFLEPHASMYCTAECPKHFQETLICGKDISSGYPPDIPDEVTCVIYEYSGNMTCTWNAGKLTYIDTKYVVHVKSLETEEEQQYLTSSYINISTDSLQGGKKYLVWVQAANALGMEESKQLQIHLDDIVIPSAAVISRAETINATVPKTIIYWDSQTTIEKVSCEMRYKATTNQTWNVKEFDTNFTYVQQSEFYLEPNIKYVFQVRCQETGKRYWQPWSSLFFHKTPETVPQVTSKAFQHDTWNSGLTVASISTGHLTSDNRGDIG
Experimental: (§1) The compounds of the present disclosure were screened in IL23/IL23R BINDING ASSAY KITS (PerkinElmer Cat #64BDPIL23PEH). The screening of the compounds of the present disclosure was carried out by using a multi-well plate (suitable for HTRF determination). Generally, 2 μl of several compounds of the present disclosure and STANDARD SOLUTIONS in KIT were first respectively added to the wells of the multi-well plate. 4 μl of Tag1-IL23, 4 μl of Tag2-IL23R, and 10 μL of pre-mixed Anti-Tag1 Eu Cryptate Antibody and Anti-Tag2 d2 reagent were necessarily added to all the wells. The multi-well plate was protected from light by an opaque cover membrane, and the opaque cover membrane was then removed
as §1, with “removed after 2 hours of incubation at room temperature. The signal value was read by an HTRF-compatible detection instrument to detect IC50 value.” for “removed”
(§2) The inhibition rate was calculated as follows: […]
By using log (inhibitor) vs. response—Variable slope (four parameters) in Graphpad, the data of HTRF experiment results were subjected to non-linear regression fitting to fit a curve and obtain the IC50 value.

[2] = test system: activation of STAT3 phosphorylation by hIL23 in DB cells; assay: Blocking the activation of STAT3 phosphorylation by hIL23 in DB cells (p-STAT3 ELISA); format: cell-based, Human; details: DB cells stimulated by rhIL-23 0.5 nM, half an hour; read-out: pStat3 IC50
Experimental: To determine the inhibitory activity of the compounds of the present disclosure on the activation of STAT3 phosphorylation by hIL23 in DB cells
The compounds produced above were added to DB (ATCC Cat #CRL-2289) cells to inhibit the signal transduction of rhIL-23 cytokine. The screening of compounds was carried out by a multi-well plate (suitable for ELISA assay). Generally, in the presence of some of the above compounds of the present disclosure, 6.25×10^6 cells/ml of DB cells were stimulated by rhIL-23 (0.5 nM, R&D SYSTEMS) in RPMI medium (Invitrogen) containing 10% of FBS, and after half an hour, lysis was carried out on ice using 50 μL of 2×lysis buffer (CST). The content of p-STAT3 in the lysate was determined by PathScan Phospho-Stat3 (Tyr705) Sandwich ELISA Kit (CST Cat #7300C), so as to calculate the activity of the compounds of the present disclosure in blocking rhIL23 signal transduction in DB cells.
as §2
By using log (inhibitor) vs. response—Variable slope (four parameters) in Graphpad, the data of ELISA experiment results were subjected to non-linear regression fitting to fit a curve and obtain the IC50 value.

Row | Structure (SMILES) | IC50 [1] [nM] | IC50 [2] [nM]
1 | CCCCCCC(=O)NCCCCCCCC(=O)NCC[N+](C)(C)CCOCCOCCC(=O)NCCN(C)C(=O)[C@H](Cc1cccnc1)NC(=O)[C@H](CC(N)=O)NC(=O)[C@H](CCC(=O)O)NC(=O)C1(NC(=O)[C@H](Cc2ccc3ccccc3c2)NC(=O)[C@H](Cc2ccc(OCCN)cc2)NC(=O)[C@H]2NC(=O)[C@H](CCCCNC(C)=O)NC(=O)[C@H](Cc3c[nH]c4c(C)cccc34)NC(=O)[C@H]([C@@H](C)O)NC(=O)[C@H](CC(N)=O)NC(=O)[C@@H](NC(C)=O)C(C)(C)SSC2(C)C)CCOCC1 [Example 2] | 0.23 | 0.01
2 | CC(=O)NCCCC[C@@H]1NC(=O)[C@H](Cc2c[nH]c3c(C)cccc23)NC(=O)[C@H]([C@@H](C)O)NC(=O)[C@H](CC(N)=O)NC(=O)[C@@H](NC(C)=O)C(C)(C)SSC(C)(C)[C@@H](C(=O)N[C@@H](Cc2ccc(OCCN)cc2)C(=O)N[C@@H](Cc2ccc3ccccc3c2)C(=O)NC2(C(=O)N[C@@H](CCC(=O)O)C(=O)N[C@@H](CC(N)=O)C(=O)N[C@@H](Cc3cccnc3)C(=O)N(C)CCNC(=O)CCOCCOCC[N+](C)(C)C)CCOCC2)NC1=O [Example 3] | 1.23 | –
3 | CC(=O)NCCCC[C@@H]1NC(=O)[C@H](Cc2c[nH]c3c(C)cccc23)NC(=O)[C@H]([C@@H](C)O)NC(=O)[C@H](CC(N)=O)NC(=O)[C@@H](NC(C)=O)C(C)(C)SSC(C)(C)[C@@H](C(=O)N[C@@H](Cc2ccc(OCCN)cc2)C(=O)N[C@@H](Cc2ccc3ccccc3c2)C(=O)NC2(C(=O)N[C@@H](CCC(=O)O)C(=O)N[C@@H](CC(N)=O)C(=O)N[C@@H](Cc3cccnc3)C(=O)N(C)CCNC(=O)COCCOCCNC(=O)COCCOCCNC(=O)CC[C@H](NC(=O)CCCCCCCCCCCCCCCCC(=O)O)C(=O)O)CCOCC2)NC1=O [Example 6] | 1.25 | –
4 | CC(=O)NCCCC[C@@H]1NC(=O)[C@H](Cc2c[nH]c3c(C)cccc23)NC(=O)[C@H]([C@@H](C)O)NC(=O)[C@H](CC(N)=O)NC(=O)[C@@H](NC(C)=O)C(C)(C)SSC(C)(C)[C@@H](C(=O)N[C@@H](Cc2ccc(OCCN)cc2)C(=O)N[C@@H](Cc2ccc3ccccc3c2)C(=O)NC2(C(=O)N[C@@H](CCC(=O)O)C(=O)N[C@@H](CC(N)=O)C(=O)N[C@@H](Cc3cccnc3)C(=O)N(C)CCNC(=O)CCCCC[N+](C)(C)C)CCOCC2)NC1=O [Example 12] | 1.14 | –

Other lines, results leading:

Row | IC50 [1] [nM] | IC50 [2] [nM] | Structure (SMILES)
5 | 1.14 | – | CC(=O)NCCCC[C@@H]1NC(=O)[C@H](Cc2c[nH]c3c(C)cccc23)NC(=O)[C@H]([C@@H](C)O)NC(=O)[C@H](CC(N)=O)NC(=O)[C@@H](NC(C)=O)C(C)(C)SSC(C)(C)[C@@H](C(=O)N[C@@H](Cc2ccc(OCCN)cc2)C(=O)N[C@@H](Cc2ccc3ccccc3c2)C(=O)NC2(C(=O)N[C@@H](CCC(=O)O)C(=O)N[C@@H](CC(N)=O)C(=O)N[C@@H](Cc3ccncc3)C(=O)N(C)CC(N)=O)CCC(F)(F)CC2)NC1=O [Example 1-14]
6 | 1.35 | – | CC(=O)NCCCC[C@@H]1NC(=O)[C@H](Cc2c[nH]c3c(C)cccc23)NC(=O)[C@H]([C@@H](C)O)NC(=O)[C@H](CC(N)=O)NC(=O)[C@@H](NC(C)=O)C(C)(C)SSC(C)(C)[C@@H](C(=O)N[C@@H](Cc2ccc(OCCN)cc2)C(=O)N[C@@H](Cc2ccc3ccccc3c2)C(=O)NC2(C(=O)N[C@@H](CCC(=O)O)C(=O)N[C@@H](CC(N)=O)C(=O)N[C@@H](Cc3cccnc3)C(=O)N(C)CCNC(=O)CCCCC[N+](C)(C)C)CCC(F)(F)CC2)NC1=O [Example 1-19]
7 | 1.09 | 0.0014 | CC(=O)NCCCC[C@@H]1NC(=O)[C@H](Cc2c[nH]c3c(C)cccc23)NC(=O)[C@H]([C@@H](C)O)NC(=O)[C@H](CC(N)=O)NC(=O)[C@@H](NC(C)=O)C(C)(C)SSC(C)(C)[C@@H](C(=O)N[C@@H](Cc2ccc(OCCN)cc2)C(=O)N[C@@H](Cc2ccc3ccccc3c2)C(=O)NC2(C(=O)N[C@@H](CCC(=O)O)C(=O)N[C@@H](CC(N)=O)C(=O)N[C@@H](Cc3cccnc3)C(=O)N(C)CC(N)=O)CCSCC2)NC1=O [Example 3-14] (Ac-[Pen]NT[Trp(7-Me)]K(Ac)[Pen][AEF][2Nal][Ac6c(4-thia)]EN[3Pal][Sar]-NH2; disulfide 1-6)
8 | 1.13 | – | CC(=O)NCCCC[C@@H]1NC(=O)[C@H](Cc2c[nH]c3c(C)cccc23)NC(=O)[C@H]([C@@H](C)O)NC(=O)[C@H](CC(N)=O)NC(=O)[C@@H](NC(C)=O)C(C)(C)SSC(C)(C)[C@@H](C(=O)N[C@@H](Cc2ccc(OCCN)cc2)C(=O)N[C@@H](Cc2ccc3ccccc3c2)C(=O)NC2(C(=O)N[C@@H](CCC(=O)O)C(=O)N[C@@H](CC(N)=O)C(=O)N[C@@H](Cc3cccnc3)C(=O)N(C)CCNC(=O)CCCCC[N+](C)(C)C)CCSCC2)NC1=O [Example 3-19]
9 | 1.11 | 0.0016 | CC(=O)NCCCC[C@@H]1NC(=O)[C@H](Cc2c[nH]c3c(C)cccc23)NC(=O)[C@H]([C@@H](C)O)NC(=O)[C@H](CC(N)=O)NC(=O)[C@@H](NC(C)=O)C(C)(C)SSC(C)(C)[C@@H](C(=O)N[C@@H](Cc2ccc(OCCN)cc2)C(=O)N[C@@H](Cc2ccc3ccccc3c2)C(=O)NC2(C(=O)N[C@@H](CCC(=O)O)C(=O)N[C@@H](CC(N)=O)C(=O)N[C@@H](Cc3cccnc3)C(=O)N(C)CC(N)=O)CCS(=O)(=O)CC2)NC1=O [Example 4-14] (Ac-[Pen]NT[Trp(7-Me)]K(Ac)[Pen][AEF][2Nal][Thp(SO2)]EN[3Pal][Sar]-NH2; disulfide 1-6)
10 | 1.18 | – | CC(=O)NCCCC[C@@H]1NC(=O)[C@H](Cc2c[nH]c3c(C)cccc23)NC(=O)[C@H]([C@@H](C)O)NC(=O)[C@H](CC(N)=O)NC(=O)[C@@H](NC(C)=O)C(C)(C)SSC(C)(C)[C@@H](C(=O)N[C@@H](Cc2ccc(OCCN)cc2)C(=O)N[C@@H](Cc2ccc3ccccc3c2)C(=O)NC2(C(=O)N[C@@H](CCC(=O)O)C(=O)N[C@@H](CC(N)=O)C(=O)N[C@@H](Cc3cccnc3)C(=O)N(C)CCNC(=O)CCCCC[N+](C)(C)C)CCS(=O)(=O)CC2)NC1=O [Example 4-19]
